Source: patent US20230075368A1, “IDENTIFICATION OF AN EGFR-BIN3 PATHWAY THAT ACTIVELY SUPPRESSES INVASION AND REDUCES TUMOR SIZE IN GLIOBLASTOMA” (The United States Govemment as represented by the …, priority 2020, published 2023)

Experiments:
BIN3 = BIN3 expression by Western blot / real-time PCR; type: cell-based, human
Procedure: Mayo PDX cells were serum starved overnight. Following treatment for specific time, cells were harvested and lysed. The human glioblastoma tissues were ground in liquid nitrogen and then were lysed. […] TGFα antibody was from R&D system.
Total RNA from cells was extracted by TRIzol Reagent (Ambion). […] The expression of each gene was normalized to GAPDH as a reference. The following primers were used.
Specifically, Western blot analysis of BIN3 in PDXs in response to EGF was performed (FIG. 4A). Cells were serum starved overnight and treated with 50 ng/ml EGF for 48 hours. BIN3 mRNA levels in EGF-treated PDXs were determined by real-time PCR (FIG. 7B). […] Cells were treated with BIN3 or scrambled siRNA for 48 hours, transfected cells were treated with or without 50 ng/ml EGF for 24 hours. Similar experiments were conducted in GBM6 and GBM22 (FIG. 7D and FIG. 7E). Referring to FIG. 7F, knockdown efficiency of BIN3 siRNA was analyzed by Western blotting. […] Cells were transiently transfected with vector expressing BIN3 for 48 hours followed by invasion assay. […] EGR1 mRNA levels in GBM12 and GBM6 after EGF treatment were determined by real-time PCR (RT-PCR) (FIG. 7I). […] A similar experiment was performed in GBM6 (FIG. 7L). […] A similar experiment was performed in GBM6 (FIG. 7N). Knockdown efficiency of EGR-1 siRNA was analyzed by Western blotting (FIG. 7O). The Western blot images are representative of three independent biological replicates. Actin served as loading control. Data are represented as mean±SEM from three independent experiments. * P<0.05, **P<0.01, unpaired two-tailed t-test.

Mayo PDX cells = assay: Matrigel invasion assay; type: cell-based, human
Procedure: Invasion status of cells was tested with Matrigel Boyden chamber assays (Fisher). 1×10^5 cells were plated on BD BioCoat Matrigel invasion chambers. 24 hours after treatment with drugs, invaded cells were stained with the HEMA-3 kit (Fisher). Invaded cells were counted in 4-5 random fields.
An equal number of cells (5×10^4) were seeded on Matrigel coated inserts, and were untreated (control vehicle) or stimulated with 50 ng/ml EGF for 24 hours, cells invading to the other side of the membrane were counted and presented as percentage cell invasion. […] A similar invasion assay was conducted on GBM26 cells (FIG. 2D). […] Cells were transfected with EGFR or scrambled siRNA for 48 hours before the invasion assay. A similar invasion assay was performed on GBM6 (FIG. 2G). […] Cells were transiently transfected with empty or EGFR wildtype (EGFRwt) overexpressing vector, and invasion assay was performed after 48 hours after transfection. […] Cells were treated with or without 50 ng/ml EGF for 48 hours before the assay. The Western blot images are representative of three independent biological replicates. Actin served as loading control. Data are represented as mean±SEM from three independent experiments. *P<0.05, **P<0.01, n.s. not significant, unpaired two-tailed Student's t-test.
FIG. 3C and FIG. 3D show the results of a Matrigel invasion assay of EGFR siRNA knockdown in GBM12 and GBM6 in response to EGF. Cells were treated with EGFR or scrambled siRNA for 48 hours, transfected cells were seeded on Matrigel coated inserts and were treated with or without 50 ng/ml EGF for 24 hours. […] Cells were transiently transfected with EGFRvIII expression or empty vector, invasion assay was performed 48 hours after transfection. […] Western blot images are representative of three independent biological replicates. Actin served as a loading control. Data are represented as mean±SEM from three independent experiments. […], **P<0.01, ***P<0.001, n.s. not significant, unpaired two-tailed t-test.

## C[C@@H]1CCN(C(=O)CC#N)C[C@@H]1N(C)c1ncnc2[nH]ccc12 [tofacitinib]
BIN3; GBM39 and GBM44 (high endogenous EGFR ligand, high BIN3), tofacitinib 1 μM, 48 hours
  upregulation of BIN3: do not respond
BIN3; GBM39 with HBEGF silenced, tofacitinib, 48 hours
  upregulation of BIN3: could now upregulate BIN3
BIN3; tofacitinib 1 μM, 24 hours, PDXs
  BIN3 mRNA level: upregulates BIN3 at the mRNA level
BIN3; tofacitinib 1 μM, 48 hours, multiple PDX lines
  BIN3 protein level: strongly upregulated
BIN3; tofacitinib in cells treated with a saturating concentration of EGF, 48 hours, GBM12 and GBM6
  BIN3 level: did not induce a further increase
Mayo PDX cells; GBM39 with HBEGF silenced vs. GBM39 control, tofacitinib 1 μM
  responsiveness in invasion assay: more responsive
Mayo PDX cells; GBM44 with HB-EGF siRNA knockdown, tofacitinib 1 μM
  cell invasion: inhibits invasion
Mayo PDX cells; tofacitinib 1 μM, 24 hours, multiple PDX lines
  cell invasion: inhibited invasiveness

## HGF: the ligand for Met
BIN3; HGF 20 ng/ml, 24 hours
  BIN3 levels: does not affect BIN3 levels
Mayo PDX cells; HGF 20 ng/ml, 24 hours, GBM12 and GBM6
  cell invasion: increased invasiveness

## EGF: Recombinant human EGF (AF-100) from Peprotech; EGFR ligand
BIN3; EGF 50 ng/ml, 48 hours, Mayo PDX lines, Western blot
  BIN3 protein level: robust increase
BIN3; EGF-treated PDXs, real-time PCR
  BIN3 mRNA level: regulated by EGF at the mRNA level
Mayo PDX cells; EGF 50 ng/ml, 24 hours, multiple Mayo PDX explant cultures expressing EGFRwt or EGFRvIII plus EGFRwt
  cell invasion: suppressed invasion
Mayo PDX cells; EGFR overexpressing PDX cells exposed to EGF
  cell invasion: invasion is suppressed
